No end group written: not given here.
Experiments:
HLA-A*03:01 [1] = biological target: T1, HLA-A*03:01 (Homo sapiens, UniProt P04439); test: fluorescence polarization competitive peptide-binding assay
HLA-A*11:01 [2] = biological target: T2, HLA-A*11:01 (Homo sapiens, UniProt P04439, A114D/D185E/E176A/F33Y/L180Q/S129P/T187R); test: as above
HLA-A*03:01 [3] = biological target: T1, HLA-A*03:01; test: p-HLA complex stability, scintillation proximity assay of β2-microglobulin dissociation; format: binding
HLA-A*11:01 [4] = biological target: T2, HLA-A*11:01; test: as above; format: binding
HLA-A*02:01 [5] = biological target: T3, HLA-A*02:01 (Homo sapiens, UniProt P04439, D140Y/D185E/D98H/E176V/E277Q/G131W/G231S/I119V/I121R/I166T/I218V/L300P/L318F/N151K/N90K/P208A/P217A/Q86G/Q94H/R138H/R169H/T345S); format: binding
HLA-B*07:02 [6] = biological target: T4, HLA-B*07:02 (Homo sapiens, UniProt P01889); test: fluorescence polarization competitive peptide-binding assay; conditions: Experimental Affinity IC50
HLA-A*02:01 [7] = biological target: T3, HLA-A*02:01; test: as above
HLA-B*07:02 [8] = biological target: T4, HLA-B*07:02; format: binding

ALLAVGATK [gp17-25]
IC50 (HLA-A*03:01 [1]; Experimental Affinity IC50): 0.962 µM | IC50 (HLA-A*11:01 [2]): 0.225 µM

ALNTITNLK
Experimental Stability (t1/2) Mean (HLA-A*03:01 [3]): 10.6 h | Half_life, Setp #1 (HLA-A*03:01 [3]): 11.4 h | Half_life, Setp #2 (HLA-A*03:01 [3]): 9.7 h | k, Setp #1 (HLA-A*03:01 [3]): 0.061 | k, Setp #2 (HLA-A*03:01 [3]): 0.0711

ASLPTTIAK
Experimental Stability (t1/2) Mean (HLA-A*11:01 [4]): 22.5 h | Half_life, Setp #1 (HLA-A*11:01 [4]): 23.8 h | Half_life, Setp #2 (HLA-A*11:01 [4]): 21.1 h | k, Setp #1 (HLA-A*11:01 [4]): 0.0291 | k, Setp #2 (HLA-A*11:01 [4]): 0.0328

FLIDLAFLI
Experimental Stability (t1/2) Mean (HLA-A*02:01 [5]): 10.1 h | Half_life, Setp #1 (HLA-A*02:01 [5]): 11 h | Half_life, Setp #2 (HLA-A*02:01 [5]): 9.2 h | k, Setp #1 (HLA-A*02:01 [5]): 0.063 | k, Setp #2 (HLA-A*02:01 [5]): 0.0751

GAGGVGKSAL [Peptide 10-19]
IC50 (HLA-B*07:02 [6]): 76.9 µM

GRAFVTIGK
IC50 (HLA-B*07:02 [6]): 0.371 µM

KITDFGIAK [HLA-A*11:01 control, Serine/threonine-protein kinase PknA, Mycobacterium tuberculosis, IEDB 109407]
Experimental Stability (t1/2) Mean (HLA-A*11:01 [4]): 15.6 h | Half_life, Setp #1 (HLA-A*11:01 [4]): 16.7 h | Half_life, Setp #2 (HLA-A*11:01 [4]): 14.6 h | k, Setp #1 (HLA-A*11:01 [4]): 0.0415 | k, Setp #2 (HLA-A*11:01 [4]): 0.0476

KLAQRRVFH
Experimental Stability (t1/2) Mean (HLA-A*03:01 [3]): 3.5 h | Half_life, Setp #1 (HLA-A*03:01 [3]): 3.5 h | Half_life, Setp #2 (HLA-A*03:01 [3]): 3.6 h | k, Setp #1 (HLA-A*03:01 [3]): 0.2008 | k, Setp #2 (HLA-A*03:01 [3]): 0.1902

KLVVVGAGGV [Peptide 5-14]
IC50 (HLA-A*02:01 [7]): 10.9 µM

KLVVVGARGV [Peptide 5-14R]
IC50 (HLA-A*02:01 [7]): 20.7 µM

RLARAIIEL [HLA-A*02:01 control, Genome polyprotein, West Nile virus, IEDB 54476]
Experimental Stability (t1/2) Mean (HLA-A*02:01 [5]): 3 h | Half_life, Setp #1 (HLA-A*02:01 [5]): 3.3 h | Half_life, Setp #2 (HLA-A*02:01 [5]): 2.8 h | k, Setp #1 (HLA-A*02:01 [5]): 0.2104 | k, Setp #2 (HLA-A*02:01 [5]): 0.2479

RPIDDRFGL
Experimental Stability (t1/2) Mean (HLA-B*07:02 [8]): 3.2 h | Half_life, Setp #1 (HLA-B*07:02 [8]): 4 h | Half_life, Setp #2 (HLA-B*07:02 [8]): 2.5 h | k, Setp #1 (HLA-B*07:02 [8]): 0.174 | k, Setp #2 (HLA-B*07:02 [8]): 0.2746

RPIDDRFGLAL
Experimental Stability (t1/2) Mean (HLA-B*07:02 [8]): 1.1 h | Half_life, Setp #1 (HLA-B*07:02 [8]): 1.2 h | Half_life, Setp #2 (HLA-B*07:02 [8]): 1.1 h | k, Setp #1 (HLA-B*07:02 [8]): 0.5749 | k, Setp #2 (HLA-B*07:02 [8]): 0.6051

RVKLSALTLK
Experimental Stability (t1/2) Mean (HLA-A*03:01 [3]): 12.3 h | Half_life, Setp #1 (HLA-A*03:01 [3]): 11.6 h | Half_life, Setp #2 (HLA-A*03:01 [3]): 13.1 h | k, Setp #1 (HLA-A*03:01 [3]): 0.0597 | k, Setp #2 (HLA-A*03:01 [3]): 0.053

SPRERLVLTL
Experimental Stability (t1/2) Mean (HLA-B*07:02 [8]): 1 h | Half_life, Setp #1 (HLA-B*07:02 [8]): 1.1 h | Half_life, Setp #2 (HLA-B*07:02 [8]): 0.9 h | k, Setp #1 (HLA-B*07:02 [8]): 0.6505 | k, Setp #2 (HLA-B*07:02 [8]): 0.7477

TVNPIVTEK [HLA-A*11:01 control, Genome polyprotein, Dengue virus, IEDB 67094]
Experimental Stability (t1/2) Mean (HLA-A*11:01 [4]): 11.4 h | Half_life, Setp #1 (HLA-A*11:01 [4]): 11.8 h | Half_life, Setp #2 (HLA-A*11:01 [4]): 11 h | k, Setp #1 (HLA-A*11:01 [4]): 0.0587 | k, Setp #2 (HLA-A*11:01 [4]): 0.0631

VLWDIPTPK
Experimental Stability (t1/2) Mean (HLA-A*11:01 [4]): 8 h | Half_life, Setp #1 (HLA-A*11:01 [4]): 8.4 h | Half_life, Setp #2 (HLA-A*11:01 [4]): 7.5 h | k, Setp #1 (HLA-A*11:01 [4]): 0.0825 | k, Setp #2 (HLA-A*11:01 [4]): 0.093 | Experimental Stability (t1/2) Mean (HLA-A*03:01 [3]): 4.7 h | Half_life, Setp #1 (HLA-A*03:01 [3]): 4.5 h | Half_life, Setp #2 (HLA-A*03:01 [3]): 4.9 h | k, Setp #1 (HLA-A*03:01 [3]): 0.1534 | k, Setp #2 (HLA-A*03:01 [3]): 0.1427

VVGARGVGK [Peptide 8-16R]
IC50 (HLA-A*03:01 [1]; Experimental Affinity IC50): 5.3 µM | IC50 (HLA-A*11:01 [2]): 0.634 µM

VVVGARGVGK [Peptide 7-16R]
IC50 (HLA-A*03:01 [1]; Experimental Affinity IC50): 3.24 µM | IC50 (HLA-A*03:01 [1]; Experimental Affinity log10[IC50]): ≤ 0.00359 µM | IC50 (HLA-A*11:01 [2]): 0.566 µM
